We go through one molecule from patent publication US6211373A, “Phenyl urea antagonists of the IL-8 receptor” (SmithKline Beecham Corporation, priority 1998, dated 2001).

This experiment deals with T1, recombinant human IL-8 type b receptor (IL-8 Rb, Type II, permissive receptor) (Homo sapiens, UniProt P25025).
T1 construct: membranes
T1 sequence (P25025 1-360): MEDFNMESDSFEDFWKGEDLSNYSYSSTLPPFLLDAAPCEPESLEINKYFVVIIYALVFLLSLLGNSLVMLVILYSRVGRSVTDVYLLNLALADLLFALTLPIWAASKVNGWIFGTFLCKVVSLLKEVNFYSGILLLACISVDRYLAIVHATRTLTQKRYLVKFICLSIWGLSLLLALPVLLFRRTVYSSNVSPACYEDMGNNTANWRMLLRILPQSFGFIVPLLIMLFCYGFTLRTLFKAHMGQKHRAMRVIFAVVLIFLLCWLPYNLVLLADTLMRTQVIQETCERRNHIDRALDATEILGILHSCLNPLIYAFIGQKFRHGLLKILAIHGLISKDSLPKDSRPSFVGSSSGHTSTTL
Nature of the experiment: Receptor binding assay, [125I] IL-8, permissive model. An excerpt: [^125 I] IL-8 (human recombinant) was obtained from Amersham Corp., Arlington Heights, Ill., with specific activity 2000 Ci/mmol. Gro-a was obtained from NEN-New England Nuclear. All other chemicals were of analytical grade. High levels of recombinant human IL-8 type a and b receptors were individually expressed in Chinese hamster ovary cells as described previously (Holmes, et al., Science, 1991, 253, 1278). The Chinese hamster ovary membranes were homogenized according to a previously described protocol (Haour, et al., J Biol Chem., 249 pp 2195-2205 (1974)). Except that the homogenization buffer was changed to 10 mM Tris-HCL, 1 mM MgSO4, 0.5 mM EDTA (ethylene-diaminetetra-acetic acid), 1 mMPMSF (a-toluenesulphonyl fluoride), 0.5 mg/L Leupeptin, pH 7.5. Membrane protein concentration was determined using Pierce Co. micro-assay kit using bovine serum albumin as a standard. All assays were performed in a 96-well micro plate format. Each reaction mixture contained ^125 I IL-8 (0.25 nM) or ^125 I Gro-a and 0.5 μg/mL of IL-8Ra or 1.0 μg/mL of IL-8Rb membranes in 20 mM Bis-Trispropane and 0.4 mM Tris HCl buffers, pH 8.0, containing 1.2 mM MgSO4, 0.1 mM EDTA, 25 mM NaCl and 0.03% CHAPS. […] The filter was then dried and counted on the Betaplate liquid scintillation counter. […]

Take `Cc1cc(Cl)ccc1NC(=O)Nc1ccccc1C(=O)O` [1-(2-Carboxyphenyl)-3-(4-chloro-2-methylphenyl)urea]: the “level at which found to be active (IL-8 receptor inhibition)” value is “about 75 μg/mL”.
